Consider one molecule from patent publication US11827665B2, “Process for the manufacture of (2S,3S,4S,5R,6S)-3,4,5-trihydroxy-6-(((4AR,10AR)-7-hydroxy-1-propyl-1,2,3,4,4A,5,10,10A-octahydrobenzo[g]quinolin-6-yl)oxy)tetrahydro-2H-pyran-2-carboxylic acid” (H. Lundbeck A/S, priority 2019, dated 2023).

The target in one series is T1, human D1 receptor (Homo sapiens, UniProt P21728).
T1 construct: host or cells: HEK-293
Description: Dopamine D1 receptor agonism, HTRF cAMP assay. The following applies: example 5 and table 2 (D1 and D2 assays). The series is classed as cell-based. The protocol:
Dopamine D1 receptor agonism was measured using a HTRF cAMP from CisBio using the protocol developed by HD Biosciences (China). Briefly, the assay is a homogeneous time resolved-fluorescence resonance energy transfer (HTRF) assay that measures production of cAMP by cells in a competitive immunoassay between native cAMP produced by cells and cAMP-labeled with XL-665. A cryptate-labeled anti-cAMP antibody visualizes the tracer. The assay was performed in accordance with instructions from manufacturer.
Test compounds were added to wells of microplates (384 format). […] HTRF cAMP was measured by excitation of the donor with 337 nm laser (the “TRF light unit”) and subsequent (delay time 100 microseconds) measurement of cryptate and d2 emission at 615 nm and 665 nm over a time window of 200 microseconds with a 2000 microseconds time window between repeats/100 flashes). HTRF measurements were performed on an Envision microplate reader (PerkinElmer). The HTRF signal was calculated as the emission-ratio at 665 nm over 615 nm. The HTRF ratio readout for test compounds was normalized to 0% and 100% stimulation using control wells with DMSO-solvent or 30 μM dopamine. […]

For another series, the target named is T2, human 5-HT2B receptor (Homo sapiens, UniProt P41595).
T2 construct: host or cells: CHO
The series can be described thus: 5-HT2B agonist activity assay (IP1 production, HTRF). Type of series: cell-based. The following applies: example 6 and Table 2. The protocol: Evaluation of the agonist activity of compounds (I), (Ia), (Ib), (Ic) and (Id) at the human 5-HT2B receptor was performed by Eurofins/Cerep (France) measuring the compound effects on inositol monophosphate (IP1) production using the HTRF detection method. Briefly, the human 5-HT2B receptor was expressed in transfected CHO cells. The cells were suspended in a buffer containing 10 mM Hepes/NaOH (pH 7.4), 4.2 mM KCl, 146 mM NaCl, 1 mM CaCl2, 0.5 mM MgCl2, 5.5 mM glucose and 50 mM LiCl, then distributed in microplates at a density of 4100 cells/well and incubated for 30 minutes at 37° C. in the presence of buffer (basal control), test compound or reference agonist. For stimulated control measurement, separate assay wells contained 1 μM 5-HT. Following incubation, the cells were lysed and the fluorescence acceptor (fluorophen D2-labeled IP1) and fluorescence donor (anti-IP1 antibody labeled with europium cryptate) were added. After 60 minutes at room temperature, the fluorescence transfer was measured at lambda (Ex) 337 nm and lambda (Em) 620 and 665 nm using a microplate reader (Rubystar, BMG). The IP1 concentration was determined by dividing the signal measured at 665 nm by that measured at 620 nm (ratio). The results were expressed as a percent of the control response to 1 μM 5-HT. The standard reference agonist was 5-HT, which was tested in each experiment at several concentrations to generate a concentration-response curve from which its EC50 value is calculated as described above for dopamine functional assays.

A short description of series [1]: PK experiments in rats: plasma compound (I) after oral dosing of prodrugs. The series is classed as in vivo, Han Wistar rats. The following applies: Wistar rats, doses equal to 287 μg/kg of compound (I). The protocol: Plasma was placed on water-ice following collection. Final storage at approximately −70° C.
Mobile phase B: Acetonitrile. […] Flow rate 0.5 mL/min.
The rats had unrestricted access to the diet.
Mobile phase B: Acetonitrile+0.2% formic acid. […] Flow rate 0.3 mL/min.
Dosing and blood sampling for compound (Ic): Han Wistar rats were supplied by Envigo, UK. […] The rats received a standard laboratory diet Teklad 2014C. The rats had unrestricted access to the diet. […] Rats were given 494 μg/kg (Ic).

A further series has as its system human hepatocytes. Description: Incubation with human hepatocytes. Type of series: in vitro ADME. The following applies: 1 μg/mL, 37° C., 0.25-60 minutes. The protocol: The cell concentration at incubation was 1×10^6 viable cells/mL. The incubations were performed in glass tubes at 37° C. with a total incubation volume of 3.5 mL and with duplicate incubations for each test item. The 3.5 mL of hepatocyte suspension was equilibrated for 10 minutes in a water bath set to 37° C. where after the incubations were initiated by adding 3.5 μL of a stock solution of the test item in DMSO (Dimethyl sulfoxide) and gently inverting the tubes. The final solvent concentration in the incubations was 0.1% DMSO. Samples of 600 μL were withdrawn from the incubations at the pre-determined time points of 0.25, 5, 15, 30 and 60 minutes after ensuring homogeneity of hepatocyte suspensions. The withdrawn volume was added to 1 mL Nunc cryotubes on wet ice containing 60 μL of ice-cold ascorbic acid (100 mg/mL) and 30 μL of ice cold 100 mM saccharic acid 1.4-lactone in 0.5 M citric acid. The tubes were mixed and 35 μL of a solution of ice cold 20% formic acid was added. The tubes were mixed thoroughly and stored at −80° C. awaiting analysis.

Series [2] in a line: Conversion in fresh rat blood. The series is classed as in vitro ADME. The following applies: fresh blood 37° C., 1 μg/mL, 0-60 minutes. The protocol: Conversion of (Id) in human blood (average of 3 donors) and rat blood (average of 45 donors) to (I) was shown in fresh blood at 37° C. spiked with 1 μg/mL of (Id). (I) was measured at 0, 5, 15, 30 and 60 minutes in isolated plasma. Analysis method and Instrumentation as described in Example 7 below in the section “Instrumentation used for analysis of compound (I) from dosing of compounds (Ic) and (Id).”

A short description of series [3]: In vivo conversion after oral dosing in minipigs.

SMILES strings stand for the structures.

T1 sequence (P21728 whole entry): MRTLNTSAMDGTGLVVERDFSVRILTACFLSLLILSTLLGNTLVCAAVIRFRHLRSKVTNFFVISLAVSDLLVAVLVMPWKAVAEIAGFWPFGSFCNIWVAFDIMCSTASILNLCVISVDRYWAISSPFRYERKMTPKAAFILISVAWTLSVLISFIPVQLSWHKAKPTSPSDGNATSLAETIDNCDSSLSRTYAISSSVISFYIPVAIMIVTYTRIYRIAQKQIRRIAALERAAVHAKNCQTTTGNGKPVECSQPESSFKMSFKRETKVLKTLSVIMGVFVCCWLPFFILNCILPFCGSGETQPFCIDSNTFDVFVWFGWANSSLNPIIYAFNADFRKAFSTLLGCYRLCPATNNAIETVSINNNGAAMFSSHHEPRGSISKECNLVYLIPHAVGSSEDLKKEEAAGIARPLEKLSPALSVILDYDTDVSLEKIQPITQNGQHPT
T2 sequence (P41595 whole entry): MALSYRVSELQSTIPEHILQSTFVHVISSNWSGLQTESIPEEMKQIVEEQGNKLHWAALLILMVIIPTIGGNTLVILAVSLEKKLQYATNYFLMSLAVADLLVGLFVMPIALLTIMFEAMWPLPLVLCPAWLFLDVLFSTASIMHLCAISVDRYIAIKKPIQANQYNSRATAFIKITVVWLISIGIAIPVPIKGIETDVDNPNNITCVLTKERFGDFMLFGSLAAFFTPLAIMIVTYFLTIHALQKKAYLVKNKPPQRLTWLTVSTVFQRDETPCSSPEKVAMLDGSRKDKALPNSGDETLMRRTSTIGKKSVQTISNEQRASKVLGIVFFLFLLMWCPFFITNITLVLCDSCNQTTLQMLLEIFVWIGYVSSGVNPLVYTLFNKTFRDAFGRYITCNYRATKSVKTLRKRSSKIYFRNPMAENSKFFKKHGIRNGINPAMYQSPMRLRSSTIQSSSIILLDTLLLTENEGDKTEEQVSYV

Consider `CCCN1CCC[C@@H]2Cc3c(ccc(O)c3O[C@@H]3O[C@H](C(=O)O)[C@@H](O)[C@H](O)[C@H]3O)C[C@H]21` [compound (Id), (2S,3S,4S,5R,6S)-3,4,5-trihydroxy-6-(((4aR,10aR)-7-hydroxy-1-propyl-1,2,3,4,4a,5,10,10a-octahydrobenzo[g]quinolin-6-yl)oxy)tetrahydro-2H-pyran-2-carboxylic acid], for which the “In vitro dopaminergic activity (in words)” value on human D1 receptor is listed as “no in vitro dopaminergic activity”. The “5-HT2B receptor agonism (in words)” value at human 5-HT2B receptor is “not a 5-HT2B agonists”. Moreover, in series [1], the “Plasma profile of compound (I) after oral dosing of the prodrug (in words)” value is recorded as “slower absorption rate avoiding rapid peak concentrations”. Further, the “Conversion of (Id) to compound (I) in human hepatocytes” value in the series on human hepatocytes was “time dependent conversion”. For the same molecule, the “Conversion of (Id) to compound (I) in rat blood” value in series [2] was “time dependent conversion”. The “In vivo conversion of (Id) to compound (I)” value in series [3] was “observed”.
